Data as given in ChEMBL document CHEMBL1123241, “Alkyl-substituted thiolo-, thiono-, and dithio-gamma-butyrolactones: new classes of convulsant and anticonvulsant agents” (1986).

Legend:
Format in all cases: functional
Mus musculus [1] = assay: Compound was evaluated for anticonvulsant activity against PTZ-induced clonic seizures at 62.5 mg/kg dose; 4/4
Mus musculus [2] = assay: Compound was evaluated for anticonvulsant activity against PTZ-induced clonic seizures at the 125 mg/kg dose; 4/4
Mus musculus [3] = assay: Compound was evaluated for anticonvulsant activity against PTZ-induced clonic seizures at the 250 mg/kg dose; 4/4
Mus musculus [4] = assay: Compound was evaluated for anticonvulsant activity against PTZ-induced tonic seizures at the 250 mg/kg dose; 4/4
Mus musculus [5] = assay: Compound was evaluated for anticonvulsant activity against PTZ-induced tonic seizures at the 62.5 mg/kg dose; 4/4
Mus musculus [6] = assay: Compound was evaluated for anticonvulsant activity against PTZ-induced tonic seizures at the 125 mg/kg dose; 4/4
Mus musculus [7] = assay: Compound was evaluated for anticonvulsant activity against PTZ-induced clonic seizures at the 250 mg/kg dose; 3/5
Mus musculus [8] = assay: Compound was evaluated for anticonvulsant activity against PTZ-induced tonic seizures at the 250 mg/kg dose; 3/5
Mus musculus [9] = assay: Compound was evaluated for anticonvulsant activity against PTZ-induced clonic seizures at the 100 mg/kg dose; 5/5
Mus musculus [10] = assay: Compound was evaluated for anticonvulsant activity against PTZ-induced clonic seizures at the 500 mg/kg dose; 3/5
Mus musculus [11] = assay: Compound was evaluated for anticonvulsant activity against PTZ-induced tonic seizures at the 100 mg/kg dose; 5/5
Mus musculus [12] = assay: Compound was evaluated for anticonvulsant activity against PTZ-induced tonic seizures at the 500 mg/kg dose; 1/5

CCC1(C)CCOC1=O (configuration not stated)
Mean time to seizure (Mus musculus [1]): 150 s | Mean time to seizure (Mus musculus [2]): 365 s | Mean time to seizure (Mus musculus [3]): 163 s | Mean time to seizure (Mus musculus [4]): 844 s | Mean time to seizure (Mus musculus [5]): 1015 s | Mean time to seizure (Mus musculus [6]): 1078 s

CCC1(C)CCOC1=S (configuration not stated)
Mean time to seizure (Mus musculus [7]): 155 s | Mean time to seizure (Mus musculus [8]): 341 s

CCC1(C)CCSC1=S (configuration not stated)
Mean time to seizure (Mus musculus [9]): 87 s | Mean time to seizure (Mus musculus [10]): 218 s | Mean time to seizure (Mus musculus [11]): 728 s | Mean time to seizure (Mus musculus [12]): 1200 s
